According to publication PMC8510169, “Isolation, Characterization, Complete Structural Assignment, and Anticancer Activities of the Methoxylated Flavonoids from Rhamnus disperma Roots” (Molecules, 2021):
Read-outs that look alike come from different tables or passages of the source.

Columns and labels:
[1] = system: MCF 7 (human breast adenocarcinoma); assay: MTT cytotoxicity assay, MCF 7; format: cell-based; settings: mean ± SD
Procedure: (§1) Three cancerous cell lines, as well as one normal fibroblast cell line, were bought from the ATCC, USA: MCF 7 (human breast adenocarcinoma), A2780 (human ovary adenocarcinoma), HT 29 (human colon adenocarcinoma), and MRC5 (normal human fetal lung fibroblast). The culture procedure was performed as described in the literature. Briefly, the cells were sub-cultured at 37 °C, 5% CO2, 95% air, and 100% relative humidity. RPMI-1640 media (10% FBS, L-glutamine and 1% antibiotic-antimycotic) was used for all cells except for MRC5, which was maintained in Eagles minimum essential medium (EMEM, 10% FBS and 1% antibiotic-antimycotic). Cytotoxicity of compounds 1–7 and 9 was evaluated by an MTT assay as previously described. Each of the three cell lines and one normal fibroblast were cultured in 96-well plates (3 × 10^3/well), and incubated at 37 °C overnight. Final concentrations of each compound were: 0, 0.05, 0.5, 5, 25, and 50 μM in media (DMSO 0.1%). Each concentration was tested in triplicates. The plates were incubated for 72 h and then MTT (50 μL) was added to each well. Plates were incubated for 3 h, supernatant was aspirated, and 100 μL of DMSO was added to each well. Absorbance was read on a multi-plate reader. The optical density of the purple formazan A550 is proportional to the number of viable cells. Compound concentrations causing 50% inhibition (IC50) compared to control cell growth (100%) were determined. GraphPad Prism version 5.00 for Windows, GraphPad Software (San Diego, CA, USA) was used for analysis.

[2] = system: A2780 (human ovary adenocarcinoma); assay: MTT cytotoxicity assay, A2780; format: cell-based; settings: 72 h, mean ± SD
Procedure: as §1

[3] = system: HT 29 (human colon adenocarcinoma); assay: MTT cytotoxicity assay, HT 29; format: cell-based; settings: mean ± SD
Procedure: as §1

[4] = system: MRC5 (normal human fetal lung fibroblast); assay: MTT cytotoxicity assay, MRC5 normal fibroblasts; format: cell-based; settings: 72 h, normal fibroblast cell line, mean ± SD
Procedure: as §1

MCF 7 cells [5] = assay: Annexin V FITC/PI apoptosis assay; format: cell-based, human; settings: MCF 7, 24 h, 5, 10 and 20 µM
Source text: Apoptosis was quantified by detecting cell surface exposure of phosphatidylserine (PS) in apoptotic cells using annexin V PI/FITC. Living cells stained with neither of the two dyes (PI−/annexin V−), while early apoptotic cells stain only with annexin V (PI−/annexin V+). In late apoptosis, cell membrane integrity is lost allowing penetration of PI (PI+/annexin V+); while in necrosis (death), cells stain with PI only (PI+/annexin V−).
The Annexin V FITC/PI assay was devised to quantify apoptosis using MCF 7 cells. MCF 7 cells were cultured in 6 well plates (1 × 10^5 cells/well) in 2 mL medium overnight at 37 °C. Then it was treated by compound 1 (24 h; final concentrations: 0, 5, 10, and 20 µM). Media was collected in tubes and kept on ice, and remaining cells were trypsinized, incubated at 37 °C and added to previous tubes. Cells were centrifuged (350 g) and supernatants were discarded. Cells were washed with PBS, centrifuged and pellets re-suspended in binding buffer (100 μL) and annexin V FITC (10 μL). Tubes were incubated at room temperature in the dark for 20 min. Binding buffer (400 μL) and 10 μL propidium iodide (PI) were added. Samples were analyzed by flow cytometry (BC FC500) within 1 h. Viable cells were differentiated from early and late apoptotic/necrotic cells by annexin V (X axis) and PI staining (Y axis).

MCF 7 cells [6] = assay: Cell cycle analysis (PI, flow cytometry); format: cell-based, human; settings: MCF 7, 24 h, 5, 10 and 20 µM, compared to the control
Procedure: The cell cycle is a series of changes occurring from the initial phase of cell formation leading to its division as a consequence of a specific mechanism. Cell cycle phases include G1 (gap 1), S (synthesis), G2 (gap 2), and M (mitosis), with cell cycle arrest usually taking place in the G1/S or the G2/M check points. Compound 1 was used to treat the MCF 7 cell line (24 h; 5 µM, 10 µM, and 20 µM) to investigate possible cell cycle effect.
Cell cycle analysis was performed using MCF 7 cells, which were cultured in 6 well plates (1 × 10^5 cells/well in 2 mL medium), before treatment with compound 1 (0, 5, 10, and 20 μM; 24 h). Cells were washed with cold PBS and trypsinized. Collected cells were centrifuged at 350 g/5 min, and supernatant discarded. Pellets were washed in cold PBS, centrifuged, and fixed overnight in 70% ice-cold ethanol. Centrifuged cells were re-suspended in cold PBS with the addition of ribonuclease A (15 min), followed by PI (2 µL/mL). Samples were held on ice and analyzed by flow cytometry. Data analysis of the DNA contents (PI bound to DNA) of 20,000 events was carried out using Expo 32 software.

[7] = system: MCF 7, A2780, and HT 29 cancer cell lines; assay: MTT cytotoxicity assay, tested cancer cell lines taken together; format: cell-based, human; settings: for IC50: 72 h, MTT assay, MCF 7, A2780, HT 29, read-out: IC50 values against the three tested cancer cell lines (range over cell lines); for folds more selective/cytotoxic against tested cancer cell lines compared to MRC5 normal cells: ratio of MRC5 IC50 to cancer cell line IC50
Procedure: as §1

Question: Which IC50 ([1]; 72 h) does the source give for `COc1cc2oc(-c3ccc(O)cc3)c(OC)c(=O)c2c(O)c1OC` [Compound 1, 5,4’-dihydroxy-3,6,7-tri-O-methyl flavone (penduletin)] here?
Answer: 2170 ± 260 nM

Question: And the IC50 ([1]; Homo sapiens, MCF7, 72 h)?
Answer: ≤ 2000 nM

Question: What about the IC50 [2] of the same compound?
Answer: 530 ± 450 nM

Question: What about the IC50 ([3]; 72 h) of the same compound?
Answer: 2160 ± 20 nM

Question: What about the IC50 ([3]; Homo sapiens, HT-29, 72 h) of the same compound?
Answer: ≤ 2000 nM

Question: And the IC50 [4]?
Answer: 4400 ± 1450 nM

Question: And the “induction of apoptosis (in words)” value (MCF 7 cells [5])?
Answer: doubled MCF 7 apoptotic populations in a dose dependent manner

Question: What about the “induction of apoptosis (in words)” value (MCF 7 cells [5]; listed as compound 1) of the same compound?
Answer: induced remarkable apoptosis in a dose dependent manner

Question: What about the “effect on cell cycle (in words)” value (MCF 7 cells [6]) of the same compound?
Answer: caused G1 cell cycle arrest

Question: What about the “effect on cell cycle (in words)” value (MCF 7 cells [6]; listed as compound 1) of the same compound?
Answer: caused dose-dependent G1 arrest

Question: What about the IC50 ([7]; Homo sapiens) of the same compound?
Answer: 530 to 9070 nM

Question: And the IC50 [7]?
Answer: 530 to 2170 nM

Question: What about the “folds more selective/cytotoxic against tested cancer cell lines compared to MRC5 normal cells” value [7] of the same compound?
Answer: 2–9 folds

Question: Which results are given for `COc1cc(-c2oc3cc(OC)c(OC)c(OC(C)=O)c3c(=O)c2OC)cc(OC)c1OC` [Compound 9, 5-O-acetyl-3,6,7,3’,4’,5’-hexa-O-methyl flavone]?
Answer: IC50 ([1]; 72 h): 2190 ± 640 nM; IC50 ([1]; Homo sapiens, MCF7, 72 h): 2000 to 3000 nM; IC50 ([3]; 72 h): 3180 ± 640 nM; IC50 ([3]; Homo sapiens, HT-29, 72 h): 2000 to 3000 nM; IC50 [4]: 19000 ± 2980 nM; folds more selective/cytotoxic against tested cancer cell lines compared to MRC5 normal cells [7]: 6–8 folds

Question: Which results are given for `COc1cc(-c2oc3cc(OC)c(OC)c(O)c3c(=O)c2OC)cc(OC)c1OC` [Compound 3, 5-hydroxy-3,6,7,3’,4’,5’-hexa-O-methyl flavone]?
Answer: IC50 ([1]; Homo sapiens, MCF7, 72 h): 2760 ± 160 nM; IC50 [2]: 3730 ± 1750 nM; IC50 ([3]; Homo sapiens, HT-29, 72 h): 2710 ± 1250 nM; IC50 [4]: 11700 ± 1580 nM; IC50 ([7]; Homo sapiens): 530 to 9070 nM; folds more selective/cytotoxic against tested cancer cell lines compared to MRC5 normal cells [7]: 4–5 folds

Question: With `COc1cc(-c2oc3cc(OC)c(OC)c(O)c3c(=O)c2OC)cc(O)c1OC` [Compound 2, 5,3’-dihydroxy-3,6,7,4’,5’-penta-O-methyl flavone] as the compound, how does the IC50 ([1]; Homo sapiens, MCF7, 72 h) read?
Answer: 6810 ± 40 nM

Question: And the IC50 [2]?
Answer: 8970 ± 1720 nM

Question: And the IC50 ([3]; Homo sapiens, HT-29, 72 h)?
Answer: 9070 ± 220 nM

Question: And the IC50 [4]?
Answer: 5460 ± 1570 nM

Question: What about the “folds more selective/cytotoxic against tested cancer cell lines compared to MRC5 normal cells” value [7] of the same compound?
Answer: not selective
